Assay results as given in patent publication US7723075B2, “Methods of screening for TRPM5 modulators” (The Queens's Medical Center, priority 2003, dated 2010).

Assays:
TRPM5 [1] = molecular target: T1, TRPM5 (Homo sapiens, UniProt Q9NZQ8); experiment: Combined patch-clamp and fura-2 recordings of TRPM5 currents after Ca2+ release, [Ca2+]i not buffered; type: cell-based
T1 construct: Human TRPM5 cDNA containing the complete ORF of the long splice version; expressed in transfected cells
T1 sequence (Q9NZQ8 1-1165): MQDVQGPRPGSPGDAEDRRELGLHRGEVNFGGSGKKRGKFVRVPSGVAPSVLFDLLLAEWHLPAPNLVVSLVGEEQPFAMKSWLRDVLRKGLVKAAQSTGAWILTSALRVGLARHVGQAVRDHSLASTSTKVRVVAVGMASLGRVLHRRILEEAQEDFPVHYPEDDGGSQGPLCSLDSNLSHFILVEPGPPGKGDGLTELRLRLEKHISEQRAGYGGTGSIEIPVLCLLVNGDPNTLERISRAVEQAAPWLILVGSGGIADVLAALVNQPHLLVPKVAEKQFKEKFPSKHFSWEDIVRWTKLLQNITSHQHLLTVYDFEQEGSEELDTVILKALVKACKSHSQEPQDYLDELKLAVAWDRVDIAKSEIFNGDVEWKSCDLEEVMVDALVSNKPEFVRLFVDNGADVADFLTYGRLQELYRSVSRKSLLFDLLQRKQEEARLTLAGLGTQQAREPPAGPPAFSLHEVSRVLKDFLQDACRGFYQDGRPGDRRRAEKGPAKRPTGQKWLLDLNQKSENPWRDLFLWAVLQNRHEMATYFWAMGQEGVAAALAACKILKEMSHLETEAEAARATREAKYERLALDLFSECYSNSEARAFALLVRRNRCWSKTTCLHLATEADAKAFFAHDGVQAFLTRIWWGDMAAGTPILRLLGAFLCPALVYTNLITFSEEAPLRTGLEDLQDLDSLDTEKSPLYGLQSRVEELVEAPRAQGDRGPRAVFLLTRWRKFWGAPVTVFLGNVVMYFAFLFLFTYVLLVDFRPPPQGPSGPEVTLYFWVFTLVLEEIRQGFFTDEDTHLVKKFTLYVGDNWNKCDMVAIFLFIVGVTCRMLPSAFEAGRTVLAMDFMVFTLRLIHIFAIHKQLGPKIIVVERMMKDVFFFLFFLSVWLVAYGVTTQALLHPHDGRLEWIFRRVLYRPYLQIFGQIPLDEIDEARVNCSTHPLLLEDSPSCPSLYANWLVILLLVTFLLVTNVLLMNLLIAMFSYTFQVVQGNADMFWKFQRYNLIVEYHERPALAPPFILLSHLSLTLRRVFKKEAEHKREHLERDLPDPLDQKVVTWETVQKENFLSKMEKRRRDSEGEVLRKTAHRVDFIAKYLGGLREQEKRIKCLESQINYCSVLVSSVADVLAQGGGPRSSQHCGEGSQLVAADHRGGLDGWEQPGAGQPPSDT
Source text: (§1) Cells grown on glass coverslips were transferred to the recording chamber and kept in a standard modified Ringer's solution of the following composition (in mM): NaCl 140, KCl 2.8, CaC12 1, MgC12 2, glucose 10, Hepes.NaOH 10, pH 7.2, with osmolarity typically ranging from 298-308 mOsm. Intracellular pipette-filling solutions contained (in MM): K-glutamate 120, NaCl 8, MgC12 1, K-BAPTA 10, HEPES.CsOH, pH 7.2 adjusted with KOH. In order to adjust free [Ca^2+]i, to the desired concentration appropriate amounts of CaC12 were added as calculated with WebMaxC v2.1 (available through Stanford University). In the case of fura-2 measurements intracellular K-BAPTA was replaced by 200 μM fura-2. Fura-2 is a calcium indicator (Handbook of Fluorescent Probes and Research Chemicals, 9th ed. Molecular Probes). […]
(§2) The cytosolic calcium concentration was monitored at a rate of 5 Hz with a photomultiplier-based system using a monochromatic light source tuned to excite fura-2 fluorescence at 360 and 390 nm for 20 ms each (TILL Photonics, Munich, Germany). Emission was detected at 450-550 run with a photomultiplier, whose analog signals were sampled and processed by X-Chart software (HEKA, Lambrecht, Germany). Fluorescence ratios were translated into free intracellular calcium concentration based on calibration parameters derived from patch-clamp experiments with calibrated calcium concentrations. […]

TRPM5 [2] = molecular target: T1, TRPM5; experiment: Whole-cell patch-clamp of TRPM5 currents in HEK-293 cells stably expressing TRPM5, [Ca2+]i buffered in pipette; type: cell-based; settings: for Hill coefficient, inhibition of TRPM5: fit to inhibitory phase
Source text: Cells grown on glass coverslips were transferred to the recording chamber and kept in a standard modified Ringer's solution of the following composition (in mM): NaCl 140, KCl 2.8, CaC12 1, MgC12 2, glucose 10, Hepes.NaOH 10, pH 7.2, with osmolarity typically ranging from 298-308 mOsm. Intracellular pipette-filling solutions contained (in MM): K-glutamate 120, NaCl 8, MgC12 1, K-BAPTA 10, HEPES.CsOH, pH 7.2 adjusted with KOH. In order to adjust free [Ca^2+]i, to the desired concentration appropriate amounts of CaC12 were added as calculated with WebMaxC v2.1 (available through Stanford University). In the case of fura-2 measurements intracellular K-BAPTA was replaced by 200 μM fura-2. Fura-2 is a calcium indicator (Handbook of Fluorescent Probes and Research Chemicals, 9th ed. Molecular Probes). Solution changes were performed by pressure ejection from a wide-tipped pipette. Thrombin (NaCl-based buffer) was purchased from Sigma.
Cells expressing TRPM5 were prepared as in Example 1. The cells were perfused with an internal solution in which the free Ca^2+ concentration was buffered to 500 nM with an appropriate mixture of BAPTA and CaC12. […] The activation kinetics of TRPM5 currents under these experimental conditions is characterized by a half-time to peak of −3 s, with the peak current itself at −10 s. The current inactivates similarly rapidly to basal levels with a half-time of —13 s.
(§3) Patch-clamp experiments were performed in the tight-seal whole-cell configuration at 21-25° C. High-resolution current recordings were acquired by a computer-based patch-clamp amplifier system (EPC-9, HEKA, Lambrecht, Germany). Patch pipettes had resistances between 2-4 MS2 after filling with the standard intracellular solution. Immediately following establishment of the whole-cell configuration, voltage ramps of 50 ms duration spanning the voltage range of −100 to +100 mV were delivered from a holding potential of 0 mV at a rate of 0.5 Hz over a period of 300 to 600 seconds. All voltages were corrected for a liquid junction potential of 10 mV between external and internal solutions when using glutamate as intracellular anion. Currents were filtered at 2.9 kHz and digitized at […] intervals. Capacitive currents and series resistance were determined and corrected before each voltage ramp using the automatic capacitance compensation of the EPC-9. The low-resolution temporal development of membrane currents was assessed by extracting the current amplitude at −80 and +80 mV from individual ramp current records. Where applicable, statistical errors of averaged data are given as means±S.E.M. with n determinations and statistical significance was assessed by Student's t-test. For single channel measurements inside-out patches were pulled into a modified standard external solution that contained no Ca^2+ and had 1 mM Na-EDTA. To record single channels a ramp protocol of 4.5 s from −100 mV to +100 mV and digitized at […] was given with no wait time in between ramps. Ramps that had no channel activity during Ca^2+ application were used for leak correction and subtracted form all ramps acquired. Data collection was at 2.9 kHz filter setting and digitally filtered at 50 Hz for display purposes.

TRPM4 = TRPM4 (Homo sapiens, UniProt Q8TD43); experiment: Dose-dependence of TRPM4 currents evoked by intracellular [Ca2+]i; type: cell-based
TRPM4, sequence (Q8TD43 whole entry, the tested form may be a part): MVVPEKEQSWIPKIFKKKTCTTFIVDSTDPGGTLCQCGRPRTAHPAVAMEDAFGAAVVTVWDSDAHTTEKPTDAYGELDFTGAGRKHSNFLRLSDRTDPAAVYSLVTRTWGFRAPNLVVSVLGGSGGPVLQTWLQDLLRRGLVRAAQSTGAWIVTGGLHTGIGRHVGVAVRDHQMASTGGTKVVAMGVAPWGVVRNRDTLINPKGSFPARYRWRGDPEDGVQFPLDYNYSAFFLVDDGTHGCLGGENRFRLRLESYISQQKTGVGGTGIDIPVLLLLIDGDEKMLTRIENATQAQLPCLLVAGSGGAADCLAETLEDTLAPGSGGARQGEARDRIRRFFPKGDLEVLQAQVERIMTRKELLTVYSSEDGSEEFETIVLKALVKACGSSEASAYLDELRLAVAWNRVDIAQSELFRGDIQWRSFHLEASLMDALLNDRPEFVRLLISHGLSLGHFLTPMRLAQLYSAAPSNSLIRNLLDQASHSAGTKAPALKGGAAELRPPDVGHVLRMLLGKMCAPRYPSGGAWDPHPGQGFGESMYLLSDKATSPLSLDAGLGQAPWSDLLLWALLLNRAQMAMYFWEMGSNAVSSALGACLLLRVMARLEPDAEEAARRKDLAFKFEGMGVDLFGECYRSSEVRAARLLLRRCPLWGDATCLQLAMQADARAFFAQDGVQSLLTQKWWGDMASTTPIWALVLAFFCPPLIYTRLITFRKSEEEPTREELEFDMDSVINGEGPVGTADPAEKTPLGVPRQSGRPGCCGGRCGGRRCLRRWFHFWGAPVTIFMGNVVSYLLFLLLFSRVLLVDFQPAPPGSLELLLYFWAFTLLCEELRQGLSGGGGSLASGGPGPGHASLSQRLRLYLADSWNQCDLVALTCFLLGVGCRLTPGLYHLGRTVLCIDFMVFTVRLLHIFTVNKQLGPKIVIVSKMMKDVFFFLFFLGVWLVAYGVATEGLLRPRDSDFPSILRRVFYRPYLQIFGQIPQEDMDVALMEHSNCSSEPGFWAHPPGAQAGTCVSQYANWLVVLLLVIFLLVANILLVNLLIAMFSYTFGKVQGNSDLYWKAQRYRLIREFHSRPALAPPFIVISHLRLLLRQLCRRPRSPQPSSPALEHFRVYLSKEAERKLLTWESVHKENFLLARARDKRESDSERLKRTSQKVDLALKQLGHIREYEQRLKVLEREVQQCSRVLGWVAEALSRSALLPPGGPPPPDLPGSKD

[3] = test system: endogenous TRPM5-like currents in INS-1 cells; experiment: Whole-cell currents in INS-1 beta cells perfused with defined [Ca2+]i; type: cell-based, rat
Method: as §3
TRPM5 is found in another beta cell line, INS-1 (FIG. 5B). The INS-1 line was used to assess the electrophysiological features of TRPM5 in a native cellular context. Since the pancreatic beta-cell line INS-1 expressed TRPM5, the native TRPM5 currents in these cells was studied using the same experimental protocols that activated TRPM5 in the heterologous HEK-293 expression system (Examples 1-3). FIG. 5C illustrates that perfusing INS-1 cells with an intracellular solution that contained elevated levels of Ca^2+ (800 nM) induced a transient current, whose current-voltage relationship (FIG. 5D) was outwardly rectifying and closely resembled the current-voltage characteristics obtained for TRPM5 in the transfected HEK-293 cells. […]

TRPM5 single channels = molecular target: T2, TRPM5 single channels (Homo sapiens, UniProt Q9NZQ8); experiment: Single-channel recordings in inside-out patches from HEK-293 cells stably expressing TRPM5; type: biochemical; settings: cytosolic side exposed to 300 nM Ca2+, n=5
T2 construct: Human TRPM5 cDNA containing the complete ORF of the long splice version; expressed in transfected cells
T2 sequence (Q9NZQ8 1-1165): T1 sequence (Q9NZQ8 1-1165)
Source text: FIG. 4A depicts studies in which the inside-out patches were pulled from HEK-293 cells stably expressing TRPM5 channels. To record single channels a ramp protocol of 4.5 s from −100 mV to +100 mV was given with no wait time in between ramps. Ramps that had no channel activity during Ca^2+ application ere used for leak correction. Data were acquired at 2.9 kHz filter setting and digitally filtered at 50 Hz for display purposes. […] The last panel is an example 1 s after stop of application and removal of Ca^2+. This patch had at least 7 channels. […] Records are representative of all 5 patches recorded this way. […]
Patch-clamp experiments were performed in the tight-seal whole-cell configuration at 21-25° C. […] Capacitive currents and series resistance were determined and corrected before each voltage ramp using the automatic capacitance compensation of the EPC-9. The low-resolution temporal development of membrane currents was assessed by extracting the current amplitude at −80 and +80 mV from individual ramp current records. Where applicable, statistical errors of averaged data are given as means±S.E.M. with n determinations and statistical significance was assessed by Student's t-test. […]
The single-channel properties of TRPM5 were analyzed in cell-free excised membrane patches in the inside-out configuration of the patch-clamp technique. […]

HEK-293 cells = experiment: fura-2 measurement of [Ca2+]i in TRPM5-expressing HEK-293 cells; type: cell-based, human; settings: thrombin 20 U/ml, n=5
Source text: as §1, §2

In the case of `O=C([O-])CN(CC(=O)[O-])c1ccccc1OCCOc1ccccc1N(CC(=O)[O-])CC(=O)[O-].[K+].[K+].[K+].[K+]` [BAPTA], the “effect on TRPM5 activation by thrombin” value (TRPM5 [1]; 10 mM BAPTA in the pipette solution, n=6, data not shown) is reported as “consistently suppressed TRPM5 activation”.

With `[Ca+2]` [[Ca^2+]i] the “average peak amplitude of TRPM5 inward currents” value (TRPM5 [2]; at −80 mV, [Ca2+]i of 1 μM, n=5) was −440 pA, the “Hill coefficient, inhibition of TRPM5” value (TRPM5 [2]) was −6 and the “Hill coefficient, inhibition of TRPM5” value (TRPM5 [2]; listed as [Ca2+]i) was 6. For the same compound, the “Hill coefficient, activation of TRPM5” value (TRPM5 [2]; fit to rising phase) was 4, the EC50 (TRPM5 [2]; whole-cell, HEK-293 expressing TRPM5, n=5-20, read-out: EC50 for activation of TRPM5 currents (rising phase)) was 850 nM and the IC50 (TRPM5 [2]; whole-cell, HEK-293 expressing TRPM5, n=5-20, read-out: IC50 of the inhibitory phase of TRPM5 currents) was 1100 nM. For the same compound, the EC50 (TRPM4; data re-calculated by WebmaxC) was 885 nM, the “Hill coefficient, TRPM4 currents” value (TRPM4; data re-calculated by WebmaxC) was 3.6 and the “inhibition of TRPM4 activity at high [Ca2+]i” value (TRPM4; levels up to 1.3 μM, Ref. 9 and data not shown) was “without signs of inhibition”. For the same compound, the “activation of endogenous TRPM5-like currents” value ([3]; 100 nM [Ca2+]i, n=3) was “neither 100 nM (n=3) nor 300 nM (n=3) activated any currents”, the “activation of endogenous TRPM5-like currents” value ([3]; 300 nM [Ca2+]i, n=3) was “neither 100 nM (n=3) nor 300 nM (n=3) activated any currents” and the “activation of endogenous TRPM5-like currents” value ([3]; 500 nM [Ca2+]i, n=3) was “a distinctive, transient TRPM5-like current was activated”. For the same compound, the “activation of endogenous TRPM5-like currents” value ([3]; 800 nM [Ca2+]i, n=8) was “a distinctive, transient TRPM5-like current was activated” and the “TRPM5 single-channel activity in inside-out patch” value (TRPM5 single channels) was “activity of multiple channels was observed”.

For Thrombin, the “TRPM5 currents at +80 and −80 mV on thrombin stimulation” value (TRPM5 [1]; thrombin 20 U/ml, n=5) was “transient increase in inward and outward currents” and the “[Ca2+]i signal on thrombin stimulation” value (HEK-293 cells) was “large Ca^2+-release transient”.
